Where two headings read alike, the source gives them in different places. Peptide text beside a SMILES is read from it.
Legend:
E. coli ATCC 25922 = test system: E. coli ATCC 25922
Procedure: (§1) The antimicrobial activities of VIP and its analogues were tested against S. aureus ATCC 25923 and E. coli ATCC 25922 according to the method reported by Wani et al. with slight modification. The final peptide concentrations ranged from 0.5 to 256 μM. The tests were performed in triplicate using 4 replicates for each experiment. In addition, S. aureus ATCC 25923 and E. coli ATCC 25922 (2 × 10^6 CFU/mL) were treated with natural VIP and VIP8 at MIC for 2 h. […] The haemolytic activity of VIP and VIP derivatives were measured using porcine erythrocytes according to previous method. MTT (3-[4,5 dimethylthiozol-2-yl]-2,5-diphenyltetrazolium bromide) was used to determine the cytotoxicity of VIP and its analogue on porcine intestinal epithelial cells IPEC-J2. Stable experiments were conducted with reference to the literature with slightly changes. First, the pH of the mediums was adjusted to acidic (pH 4.0, pH 5.0, and pH 6.0) and basic (pH 8.0, pH 9.0, and pH 10.0) conditions. To investigate the effects of ion strength, the bacterial mediums were supplemented with different concentrations of NaCl (20 mM, 60 mM, and 180 mM) or MgCl2 (1 mM, 25 mM, and 50 mM). Then, bacteria were incubated with VIP, VIP analogues 2 and 8, respectively. After 3 h of incubation, bacterial viability was measured with a Synergy HT multimode reader (BioTek, Winooski, VT, USA) at 600 nm.
(§2) Both the agar diffusion test and modified broth microdilution method were used to evaluate the antimicrobial activity of recombinant expressed VIP8. For the Oxford cup agar diffusion, the sample was added to an Oxford cup, which was then placed on a Mueller-Hinton agar plate containing 1 × 10^5 colony-forming units of S. aureus […]. Chemically-synthesized VIP8 and ampicillin were used as the positive control. The minimal inhibition concentration was determined by the method reported by Wani et al..

S. aureus ATCC 25923 = test system: S. aureus ATCC 25923
Procedure: as §1, §2

[1] = E. coli ATCC 25922, peptide 0.5 to 256 μM, triplicate, 4 replicates each, Table 2
[2] = S. aureus ATCC 25923, peptide 0.5 to 256 μM, triplicate, 4 replicates each, Table 2

MIC (minimal inhibitory concentration) (E. coli ATCC 25922; ATCC 25922, 2 h) | MIC (minimum inhibitory concentration) (E. coli ATCC 25922; ATCC 25922, 2 h) | MIC (minimal inhibitory concentration) (S. aureus ATCC 25923; ATCC 25923, 2 h) | MIC (minimum inhibitory concentration) (S. aureus ATCC 25923; ATCC 25923, 2 h) | SMILES | MBC (minimum bactericidal concentration) (E. coli ATCC 25922; ATCC 25922, 2 h) | MBC (minimum bactericidal concentration) (S. aureus ATCC 25923; ATCC 25923, 2 h) | Cytotoxicity (in words) (3T3-L1 cells) | MBC (minimum bactericidal concentration) (E. coli ATCC 25922; [1]) | MIC (minimum inhibitory concentration) (E. coli ATCC 25922; [1]) | MBC (minimum bactericidal concentration) (S. aureus ATCC 25923; [2]) | MIC (minimum inhibitory concentration) (S. aureus ATCC 25923; [2])
2 µM | 2 µM | 8 µM | 8 µM | CC[C@H](C)[C@H](NC(=O)CNC(=O)[C@H](CCC(=O)O)NC(=O)[C@H](CO)NC(=O)[C@@H](NC(=O)[C@H](CCCNC(=N)N)NC(=O)[C@H](CCCCN)NC(=O)[C@H](CCCCN)NC(=O)[C@H](C)NC(=O)[C@H](CO)NC(=O)[C@H](CC(N)=O)NC(=O)[C@H](CCC(=O)O)NC(=O)[C@H](CC(C)C)NC(=O)[C@H](CCCCN)NC(=O)[C@H](CCCCN)NC(=O)[C@H](C)NC(=O)[C@@H](NC(=O)[C@H](CCCCN)NC(=O)[C@H](CO)NC(=O)[C@H](CC(C)C)NC(=O)[C@H](Cc1c[nH]c2ccccc12)NC(=O)[C@@H](N)CO)[C@@H](C)O)[C@@H](C)CC)C(=O)N[C@@H](C)C(=O)N[C@H](C(=O)N[C@@H](C)C(=O)N[C@H](C(=O)N[C@@H](CCC(N)=O)C(=O)NCC(=O)NCC(=O)N1CCC[C@H]1C(=O)N[C@@H](CCCNC(=N)N)C(=O)O)[C@@H](C)CC)[C@@H](C)CC [Cecropin P1, reference compound] (H-SWLSKTAKKLENSAKKRISEGIAIAIQGGPR-OH) | 4 µM | 8 µM | – | – | – | – | –
– | 16 µM | – | 64 µM | CC[C@H](C)[C@H](NC(=O)[C@H](CO)NC(=O)[C@H](CC(N)=O)NC(=O)[C@H](CC(C)C)NC(=O)[C@H](Cc1ccc(O)cc1)NC(=O)[C@H](CCCCN)NC(=O)[C@H](CCCCN)NC(=O)[C@@H](NC(=O)[C@H](C)NC(=O)[C@H](CCSC)NC(=O)[C@H](CCC(N)=O)NC(=O)[C@H](CCCCN)NC(=O)[C@H](CCCNC(=N)N)NC(=O)[C@H](CC(C)C)NC(=O)[C@H](CCCNC(=N)N)NC(=O)[C@@H](NC(=O)[C@H](Cc1ccc(O)cc1)NC(=O)[C@H](CC(N)=O)NC(=O)[C@H](CCCCN)NC(=O)[C@@H](NC(=O)[C@H](Cc1ccccc1)NC(=O)[C@@H](NC(=O)[C@H](C)NC(=O)[C@H](CCCCN)NC(=O)[C@H](CO)NC(=O)[C@@H](N)Cc1c[nH]cn1)C(C)C)[C@@H](C)O)[C@@H](C)O)C(C)C)C(=O)N[C@@H](CC(C)C)C(=O)N[C@@H](CC(N)=O)C(=O)O [VIP2] (H-HSKAVFTKNYTRLRKQMAVKKYLNSILN-OH) | 32 µM | 128 µM | no cytotoxicity | – | – | – | –
– | – | – | – | CC[C@H](C)[C@H](NC(=O)[C@H](CO)NC(=O)[C@H](CC(N)=O)NC(=O)[C@H](CC(C)C)NC(=O)[C@H](CO)NC(=O)[C@H](CCCCN)NC(=O)[C@H](CCCCN)NC(=O)[C@@H](NC(=O)[C@H](C)NC(=O)[C@H](CCSC)NC(=O)[C@H](CCC(N)=O)NC(=O)[C@H](CCCCN)NC(=O)[C@H](CCCNC(=N)N)NC(=O)[C@H](CC(C)C)NC(=O)[C@H](CCCNC(=N)N)NC(=O)[C@@H](NC(=O)[C@H](CO)NC(=O)[C@H](CC(N)=O)NC(=O)[C@H](CC(=O)O)NC(=O)[C@@H](NC(=O)[C@H](Cc1ccccc1)NC(=O)[C@@H](NC(=O)[C@H](C)NC(=O)[C@H](CC(=O)O)NC(=O)[C@H](CO)NC(=O)[C@@H](N)Cc1c[nH]cn1)C(C)C)[C@@H](C)O)[C@@H](C)O)C(C)C)C(=O)N[C@@H](CC(C)C)C(=O)N[C@@H](CC(N)=O)C(=O)O [VIP3] (H-HSDAVFTDNSTRLRKQMAVKKSLNSILN-OH) | – | – | – | >256 µM | >256 µM | >256 µM | >256 µM
– | >256 µM | – | >256 µM | CC[C@H](C)[C@H](NC(=O)[C@H](CO)NC(=O)[C@H](CC(N)=O)NC(=O)[C@H](CC(C)C)NC(=O)[C@H](Cc1ccc(O)cc1)NC(=O)[C@H](CCCCN)NC(=O)[C@H](CCCCN)NC(=O)[C@@H](NC(=O)[C@H](C)NC(=O)[C@H](CCSC)NC(=O)[C@H](CCC(N)=O)NC(=O)[C@H](CCCCN)NC(=O)[C@H](CCCNC(=N)N)NC(=O)[C@H](CC(C)C)NC(=O)[C@H](CCCNC(=N)N)NC(=O)[C@@H](NC(=O)[C@H](Cc1ccc(O)cc1)NC(=O)[C@H](CC(N)=O)NC(=O)[C@H](CC(=O)O)NC(=O)[C@@H](NC(=O)[C@H](Cc1ccccc1)NC(=O)[C@@H](NC(=O)[C@H](C)NC(=O)[C@H](CC(=O)O)NC(=O)[C@H](CO)NC(=O)[C@@H](N)Cc1c[nH]cn1)C(C)C)[C@@H](C)O)[C@@H](C)O)C(C)C)C(=O)N[C@@H](CC(C)C)C(=O)N[C@H](C(=O)O)[C@@H](C)O [VIP4] (H-HSDAVFTDNYTRLRKQMAVKKYLNSILT-OH) | >256 µM | >256 µM | – | – | – | – | –
– | >256 µM | – | >256 µM | CC[C@H](C)[C@H](NC(=O)[C@H](CO)NC(=O)[C@H](CC(N)=O)NC(=O)[C@H](CC(C)C)NC(=O)[C@H](Cc1ccc(O)cc1)NC(=O)[C@H](CCCCN)NC(=O)[C@H](CCCCN)NC(=O)[C@@H](NC(=O)[C@H](C)NC(=O)[C@H](CCSC)NC(=O)[C@H](CCC(N)=O)NC(=O)[C@H](CCCCN)NC(=O)[C@H](CCCNC(=N)N)NC(=O)[C@H](CC(C)C)NC(=O)[C@H](CCCNC(=N)N)NC(=O)[C@@H](NC(=O)[C@H](Cc1ccc(O)cc1)NC(=O)[C@H](CC(N)=O)NC(=O)[C@H](CCCCN)NC(=O)[C@@H](NC(=O)[C@H](Cc1ccccc1)NC(=O)[C@@H](NC(=O)[C@H](C)NC(=O)[C@H](CCCCN)NC(=O)[C@H](CO)NC(=O)[C@@H](N)Cc1c[nH]cn1)C(C)C)[C@@H](C)O)[C@@H](C)O)C(C)C)C(=O)N[C@@H](CC(C)C)C(=O)N[C@H](C(=O)O)[C@@H](C)O [VIP5] (H-HSKAVFTKNYTRLRKQMAVKKYLNSILT-OH) | >256 µM | >256 µM | – | – | – | – | –
– | >256 µM | – | >256 µM | CC[C@H](C)[C@H](NC(=O)[C@H](CO)NC(=O)[C@H](CC(N)=O)NC(=O)[C@H](CC(C)C)NC(=O)[C@H](CO)NC(=O)[C@H](CCCCN)NC(=O)[C@H](CCCCN)NC(=O)[C@@H](NC(=O)[C@H](C)NC(=O)[C@H](CCSC)NC(=O)[C@H](CCC(N)=O)NC(=O)[C@H](CCCCN)NC(=O)[C@H](CCCNC(=N)N)NC(=O)[C@H](CC(C)C)NC(=O)[C@H](CCCNC(=N)N)NC(=O)[C@@H](NC(=O)[C@H](CO)NC(=O)[C@H](CC(N)=O)NC(=O)[C@H](CC(=O)O)NC(=O)[C@@H](NC(=O)[C@H](Cc1ccccc1)NC(=O)[C@@H](NC(=O)[C@H](C)NC(=O)[C@H](CC(=O)O)NC(=O)[C@H](CO)NC(=O)[C@@H](N)Cc1c[nH]cn1)C(C)C)[C@@H](C)O)[C@@H](C)O)C(C)C)C(=O)N[C@@H](CC(C)C)C(=O)N[C@H](C(=O)O)[C@@H](C)O [VIP6] (H-HSDAVFTDNSTRLRKQMAVKKSLNSILT-OH) | >256 µM | >256 µM | – | – | – | – | –
– | 8 µM | – | 16 µM | CC[C@H](C)[C@H](NC(=O)[C@H](C)NC(=O)[C@H](C)NC(=O)[C@H](CC(C)C)NC(=O)[C@H](Cc1ccc(O)cc1)NC(=O)[C@H](CCCNC(=N)N)NC(=O)[C@H](CCCNC(=N)N)NC(=O)[C@@H](NC(=O)[C@H](C)NC(=O)[C@H](CC(C)C)NC(=O)[C@H](CCC(N)=O)NC(=O)[C@H](CCCNC(=N)N)NC(=O)[C@H](CCCNC(=N)N)NC(=O)[C@H](CC(C)C)NC(=O)[C@H](CCCNC(=N)N)NC(=O)[C@@H](NC(=O)[C@H](Cc1ccc(O)cc1)NC(=O)[C@H](CC(N)=O)NC(=O)[C@H](C)NC(=O)[C@@H](NC(=O)[C@H](Cc1ccccc1)NC(=O)[C@@H](NC(=O)[C@H](C)NC(=O)[C@H](CC(=O)O)NC(=O)[C@H](CO)NC(=O)[C@@H](N)Cc1c[nH]cn1)C(C)C)[C@@H](C)O)[C@@H](C)O)C(C)C)C(=O)N[C@@H](CC(C)C)C(=O)NCC(=O)N[C@@H](CCCNC(=N)N)C(=O)N[C@@H](CCCNC(=N)N)C(=O)O [VIP7] (H-HSDAVFTANYTRLRRQLAVRRYLAAILGRR-OH) | 8 µM | 32 µM | – | – | – | – | –
